The record followed here is patent US20020147136A1, “Compounds for targeting endothelial cells, compositions containing the same and methods for their use” (priority 2000, published 2002).

Residues, ends and D or L forms follow the SMILES beside them.

One assay deals with Neuropilin-1/Fc. Kind of assay: Fluorescence polarization binding to NP-1/Fc. The protocol: The ability of various compositions comprising TKPPR monomers or multimers to bind to NP-1/Fc and KDR-Fc was evaluated using FP. The binding studies of various Oregon Green (OG)-labeled compounds comprising TKPPR monomers or multimers and related compounds with Neuropilin-1/Fc, and KDR-Fc (both from R&D Systems), were carried out at 37° C. in D-PBS buffer (pH 7.4). FP values (mP) for each substrate was measured by titrating the ligand (5-20 nM) with receptor protein using a Jolley Research and Consulting FPM-1 fluorescence Polarization analyzer. In each of these experiments the observed polarization values were plotted against receptor concentration. The mP values for 100% binding of tracer labeled ligand to receptor protein was calculated using the software provided by the vendor.
On the technique in general: In fluorescence polarisation assays a small probe gives low polarisation when free and higher when bound to something large.

Another assay has as its target HAEC. Kind of assay: Inhibition of TKPPR-bubble binding to HAEC in static culture by competing agents. In kind it is cell-based, human. To be noted: for half-maximal inhibition of bubble binding / IC50 / Bubbles Bound: 5% TKPPR bubbles; for IC50: read-out: half-maximal inhibition of bubble binding; for inhibition of bubble binding to HAEC: Example 12; for ability to block binding of BRU-114 microbubbles to HAEC / Bubbles Bound % of control binding / ability to inhibit binding of BRU-114 microbubbles to HAEC / Bubbles Bound (average of duplicate): 2% BRU-114 bubbles; for ability to block binding of BRU-114 microbubbles to HAEC: up to 200 microM. How it is done:
Vials of the compositions of example 5 and of example 6 may be reconstituted with 5 mL of sterile saline, injected using a 20-guage 1.5 inch needle. Bubbles may be then formed within the vials by shaking by hand vigorously for 30 seconds. 1 to 5 mL of the bubble formulation may be removed from each vial and diluted with 3 volumes of D-PBS (without calcium or magnesium) within 1 hour of use.
Chamber slides containing confluent HAEC may be drained of culture medium, which was immediately replaced with one of the final bubble solutions prepared above. The wells may be slightly overfilled such that the liquid meniscus protrudes slightly above the plastic well-forming scaffold of the slide. Bubble solutions may be only added to alternate wells to minimize liquid cross-talk. The wells may be sealed with a piece of Parafilm and the slide incubated 20 minutes, inverted (according to Klibanov A. L., Advanced drug Delivery Reviews, 37, 1999, 139-157) to allow the bubbles to rise and make contact with the cells, after which the solutions may be poured off. Weakly associated bubbles may be removed by washing each well twice with 0.5 mL of D-PBS, swirling gently each time before pouring off. Additional D-PBS (0.5 mL) may be added to wells after the washes to keep the cells submerged until microscopic evaluation.
Composition I of Example 5 was repeated exactly as described except that 0.5 mg DPPE-GTKPPR was added (instead of 2.5 mg) yielding compositions with 1% DPPE-GTKPPR. Vials of this composition as well as that of composition I ofExample 5 (5% DPPE-GTKPPR) were reconstituted with 5 mL of sterile saline, injected using a 20-guage 1.5 inch needle. Bubbles were then formed within the vials by shaking by hand vigorously for 30 seconds. 1 to 5 mL of the bubble formulation was removed from each vial and diluted with 3 volumes of D-PBS (without calcium or magnesium) within 1 hour of use.
Chamber slides containing confluent HAEC were drained of culture medium, which was immediately replaced with one of the final bubble solutions prepared above. The wells were slightly overfilled such that the liquid meniscus protruded slightly above the plastic well-forming scaffold of the slide. Bubble solutions were only added to alternate wells to minimize liquid cross-talk. The wells were sealed with a piece of Parafilm and the slide was incubated 20 minutes, inverted to allow the bubbles to rise and make contact with the cells, after which the solutions were poured off. Weakly associated bubbles were removed by washing each well twice with 0.5 mL of D-PBS, swirling gently each time pouring off. Additional D-PBS (0.5 mL) was added to wells after the washes to keep the cells submerged until microscopic evaluation.
Assays were performed as described for Example 7 using microbubble compositions containing 2% BRU-114 (Composition I of Example 5) as a % of total phospholipid in the composition.
Compositions were reconstituted and assays were performed as described in Example 7 using microbubble compositions containing 1% BRU-114 (Composition I of Example 5) as a % of total phospholipid in the composition.
Assays were performed as described for Example 7 using microbubble compositions containing 2% BRU-114 (as a % of total phospholipid in the composition).

Consider “Thr-Lys-Pro-Pro-Arg-Lys(Arg-Pro-Pro-Lys-Thr)-Gly-TTDA-OG [BRU-337]”, for which the “binding characteristics compared to BRU-326” value in the assay on Neuropilin-1/Fc is “did not exhibit the same binding characteristics”.

For “KDR/Fc: soluble human KDR/Fc chimera (R&D Sytems Inc.)”, the “half-maximal inhibition of bubble binding” value at HAEC was “about 450 ng/mL”. In addition, the IC50 on HAEC is ~1.4 nM. For the same molecule, in the assay with HAEC, the “inhibition of bubble binding to HAEC” value is listed as “inhibit potently”. The “Bubbles Bound” value in the assay with HAEC (KDR/Fc added 125 ng/ml) is 1030 ± 12; in the assay with HAEC (KDR/Fc added 250 ng/ml) it was 786 ± 76; with HAEC (KDR/Fc added 500 ng/ml) it was 342 ± 78; in the assay on HAEC (KDR/Fc added 1000 ng/ml), 75 ± 5; in the assay with HAEC (KDR/Fc added 2500 ng/ml) it was 84 ± 3.

Consider `CC(O)C(NC(=O)C(N)CS)C(=O)NC(CCCCN)C(=O)N1CCCC1C(=O)N1CCCC1C(=O)NC(CCCNC(=N)N)C(=O)NC(CS)C(=O)O` (stereo not drawn) [BRU-305] (H-CTKPPRC-OH; configuration not given here), for which the “ability to block binding of BRU-114 microbubbles to HAEC” value in the assay on HAEC is “no ability to block”. Besides, the figures for the “Bubbles Bound % of control binding” value in the assay with HAEC (competitor 50 microM), in the assay with HAEC (competitor 100 microM) and with HAEC (competitor 200 microM) were 97%, 78% and 88%, respectively.

As to “VEGF165: vascular endothelial growth factor isoform containing 165 amino acids”, the “ability to inhibit binding of BRU-114 microbubbles to HAEC” value with HAEC is given as “potently blocked”. Moreover, on HAEC, the “half-maximal inhibition of bubble binding” value is reported as “about 12.5 ng/mL”. The IC50 on HAEC was ~0.3 nM. Also, the “inhibition of bubble binding to HAEC” value in the assay with HAEC is on record as “potently may inhibit”. Besides, the “Bubbles Bound” value amounted to 1184 ± 172 with HAEC (VEGF added 6.25 ng/ml); 599 ± 6 with HAEC (VEGF added 12.5 ng/ml); 342 ± 22 with HAEC (VEGF added 25 ng/ml); 226 ± 39 with HAEC (VEGF added 50 ng/ml); 190 ± 45 in the assay on HAEC (VEGF added 75 ng/ml). In addition, the figures for the “Bubbles Bound (average of duplicate)” value with HAEC (competitor 25 ng/ml), in the assay with HAEC (competitor 100 ng/ml) and with HAEC (competitor 200 ng/ml) were 144, 94 and 70, respectively.

Regarding `CC(O)C1/N=C(/O)C(N)CSSCC(C(=O)O)/N=C(/O)C(CCCNC(=N)N)/N=C(\O)C2CCCN2C(=O)C2CCCN2C(=O)C(CCCCN)/N=C\1O` (stereo not drawn) [BRU-306], in the assay with HAEC, the “ability to block binding of BRU-114 microbubbles to HAEC” value is on record as “no ability to block”. In addition, the “Bubbles Bound % of control binding” value with HAEC (competitor 50 microM) is listed as 97%; with HAEC (competitor 100 microM), 71%; in the assay with HAEC (competitor 200 microM), 99%.

Consider “TKPPR-K(RPPKT)-K[K(RPPKT)TKPPR]-G-Z-OG [BRU-346]”, for which, in the assay on Neuropilin-1/Fc, the “binding characteristics compared to BRU-326” value was “did not exhibit the same binding characteristics”. Also, the “binding to NP-1/Fc by FP” value in the assay on Neuropilin-1/Fc (Oregon Green-labeled ligand) is on record as “negative”.

B1: VEGF121: VEGF isoform of 121 amino acids, lacks the heparin-binding domain (protein)
chain: APMAEGGGQNHHEVVKFMDVYQRSYCHPIETLVDIFQEYPDEIEYIFKPSCVPLMRCGGCCNDEGLECVPTEESNITMQIMRIKPHQGQHIGEMSFLQHNKCECRPKKDRARQEKCDKPRR
For the molecule B1, the “effect on BRU-326 binding to NP-1” value in the assay with Neuropilin-1/Fc (at up to 250nM) is listed as “no effect”. In the assay on HAEC, the “ability to inhibit binding of BRU-114 microbubbles to HAEC” value was “little if any ability to inhibit”. In addition, the figures for the “Bubbles Bound (average of duplicate)” value with HAEC (competitor 100 ng/ml), in the assay with HAEC (competitor 200 ng/ml) and with HAEC (competitor 400 ng/ml) were 878, 849 and 778, respectively.
